Assay results taken from PubChem BioAssay AID248 (DTP/NCI, 2004).
“And” between values parts separate entries of the source, which are not always exact repeats. Identical values can stand only once. Toxic doses and inconclusive results are not listed. Cut-off read from the data, not from the text of the source: active = T/C of 150% or more; inactive = T/C below 125%.

Test system: L1210 leukemia ip in BDF1 mice, survival T/C
Experiment: NCI In Vivo Anticancer Drug Screen. Data for tumor model L1210 Leukemia (intraperitoneal) in B6D2F1 (BDF1) mice
Conditions: endpoint: mean survival time, higher = longer survival
Outline: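 Survival endpoint. Drug-treated group vs vehicle group, expressed as T divided by C. Tumor passaged by transplantation.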

[1] = dose: 100.0 mg/kg/injection, schedule: Q04DX003 (ip), vehicle: saline
[2] = dose: 50.0 mg/kg/injection, schedule: Q01DX009 (ip), vehicle: saline with Tween-80
[3] = dose: 100.0 mg/kg/injection, schedule: Q01DX009 (ip), vehicle: saline with Tween-80
[4] = dose: 100.0 mg/kg/injection, schedule: Q01DX009 (ip), vehicle: Klucel (hydroxypropylcellulose) (HPC)
[5] = dose: 100.0 mg/kg/injection, schedule: Q04DX003 (ip), vehicle: Klucel (hydroxypropylcellulose) (HPC)
[6] = dose: 200.0 mg/kg/injection, schedule: Q01DX009 (ip), vehicle: Klucel (hydroxypropylcellulose) (HPC)
[7] = dose: 200.0 mg/kg/injection, schedule: Q04DX003 (ip), vehicle: Klucel (hydroxypropylcellulose) (HPC)
[8] = dose: 400.0 mg/kg/injection, schedule: Q01DX009 (ip), vehicle: Klucel (hydroxypropylcellulose) (HPC)
[9] = dose: 400.0 mg/kg/injection, schedule: Q04DX003 (ip), vehicle: Klucel (hydroxypropylcellulose) (HPC)
[10] = dose: 100.0 mg/kg/injection, schedule: Q04DX003 (ip), vehicle: saline with Tween-80

Measured: T/C

O=C1/C(=C/c2ccccc2)CCC2C1CCCC21OCCO1 (stereo unspecified)
inactive: dose: 75.0 mg/kg/injection, schedule: Q01DX001 (ip), vehicle: saline 97 % of control | dose: 75.0 mg/kg/injection, schedule: Q04DX003 (ip), vehicle: saline 100 % of control | dose: 150.0 mg/kg/injection, schedule: Q01DX001 (ip), vehicle: saline 95 % of control | dose: 150.0 mg/kg/injection, schedule: Q04DX003 (ip), vehicle: saline 103 % of control | dose: 300.0 mg/kg/injection, schedule: Q01DX001 (ip), vehicle: saline 107 % of control | dose: 300.0 mg/kg/injection, schedule: Q04DX003 (ip), vehicle: saline 101 % of control

CN(C)CNC=O
inactive: dose: 25.0 mg/kg/injection, schedule: Q01DX009 (ip), vehicle: saline 86 % of control | dose: 50.0 mg/kg/injection, schedule: Q01DX009 (ip), vehicle: saline 96 % of control | dose: 100.0 mg/kg/injection, schedule: Q01DX009 (ip), vehicle: saline 96 % of control and 99 % of control | [1] 103 % of control | dose: 200.0 mg/kg/injection, schedule: Q04DX003 (ip), vehicle: saline 106 % of control | dose: 400.0 mg/kg/injection, schedule: Q04DX003 (ip), vehicle: saline 97 % of control

CC(C)(C)/C(=N\[N+](C)(C)C)c1ccccc1
inactive: [1] 98 % of control

COc1cc(/C=N/NC(=O)CNC(=O)NCc2ccccc2)ccc1O
inactive: [2] 92 % of control | [3] 95 % of control

Cc1ccn(C(N)=O)n1
inactive: [4] 107 % of control | [5] 98 % of control | [6] 102 % of control | [7] 96 % of control | [8] 115 % of control | [9] 100 % of control

Clc1cccc(C2ON2C2CCCCC2)c1 (stereo unspecified)
inactive: dose: 100.0 mg/kg/injection, schedule: Q01DX001 (ip), vehicle: carboxymethylcellulose (CMC) 92 % of control | dose: 200.0 mg/kg/injection, schedule: Q01DX001 (ip), vehicle: carboxymethylcellulose (CMC) 100 % of control | dose: 400.0 mg/kg/injection, schedule: Q01DX001 (ip), vehicle: carboxymethylcellulose (CMC) 94 % of control

O=C1C2C3CCC(O3)C2C(=O)N1CC#CCCl (stereo unspecified)
inactive: dose: 6.25 mg/kg/injection, schedule: Q04DX002 (ip), vehicle: saline with Tween-80 100 % of control | dose: 12.5 mg/kg/injection, schedule: Q04DX002 (ip), vehicle: saline with Tween-80 106 % of control

COc1ccc(Cl)cc1NC(=O)Nc1ccc(Cl)cc1Cl
inactive: [4] 94 % of control | [5] 111 % of control | [6] 96 % of control | [7] 91 % of control | [8] 94 % of control | [9] 94 % of control

Cc1c(N)nc(=S)[nH]c1C(=O)O
inactive: dose: 50.0 mg/kg/injection, schedule: Q01DX001 (ip), vehicle: Klucel (hydroxypropylcellulose) (HPC) 95 % of control | dose: 50.0 mg/kg/injection, schedule: Q04DX003 (ip), vehicle: Klucel (hydroxypropylcellulose) (HPC) 91 % of control | dose: 100.0 mg/kg/injection, schedule: Q01DX001 (ip), vehicle: Klucel (hydroxypropylcellulose) (HPC) 97 % of control | [5] 105 % of control | dose: 200.0 mg/kg/injection, schedule: Q01DX001 (ip), vehicle: Klucel (hydroxypropylcellulose) (HPC) 106 % of control | [7] 94 % of control

O=C(CC(C(=O)O)N1CCOCC1)c1ccccc1 (stereo unspecified)
inactive: dose: 50.0 mg/kg/injection, schedule: Q01DX009 (ip), vehicle: saline sonified 99 % of control | dose: 100.0 mg/kg/injection, schedule: Q01DX009 (ip), vehicle: saline sonified 97 % of control | [5] 97 % of control | dose: 200.0 mg/kg/injection, schedule: Q01DX009 (ip), vehicle: saline sonified 97 % of control | [7] 92 % of control

Cc1ccc(NC(=O)CCC(=O)O)cc1[N+](=O)[O-]
inactive: [4] 97 % of control | [6] 101 % of control | [8] 98 % of control

Nc1ccn(CC(=O)c2ccc(Cl)s2)c(=O)n1
inactive: dose: 100.0 mg/kg/injection, schedule: Q01DX009 (ip), vehicle: water 95 % of control | dose: 100.0 mg/kg/injection, schedule: Q04DX003 (ip), vehicle: water 101 % of control | dose: 200.0 mg/kg/injection, schedule: Q01DX009 (ip), vehicle: water 101 % of control | dose: 200.0 mg/kg/injection, schedule: Q04DX003 (ip), vehicle: water 100 % of control | dose: 400.0 mg/kg/injection, schedule: Q04DX003 (ip), vehicle: water 102 % of control

CCCCCCC(C)NCC(C)O (stereo unspecified)
inactive: dose: 75.0 mg/kg/injection, schedule: Q01DX001 (ip), vehicle: acid diluted with saline 96 % of control

CCCCc1csc(=S)[nH]1
inactive: dose: 100.0 mg/kg/injection, schedule: Q01DX001 (sc), vehicle: carboxymethylcellulose (CMC) 100 % of control | dose: 200.0 mg/kg/injection, schedule: Q01DX001 (sc), vehicle: carboxymethylcellulose (CMC) 113 % of control | dose: 400.0 mg/kg/injection, schedule: Q01DX001 (sc), vehicle: carboxymethylcellulose (CMC) 110 % of control

CCSc1ncnc2nc(C)[nH]c12
inactive: dose: 100.0 mg/kg/injection, schedule: Q01DX001 (ip), vehicle: saline 100 % of control | dose: 200.0 mg/kg/injection, schedule: Q01DX001 (ip), vehicle: saline 101 % of control

Cc1cccc2c1C1c3ccccc3C(=O)CC1CC2=O (stereo unspecified)
inactive: [5] 98 % of control | [7] 97 % of control | [9] 93 % of control

COc1cc(/C=N/OCc2cc3c(cc2Cl)OCO3)cc(OC)c1OC
inactive: [10] 99 % of control | dose: 200.0 mg/kg/injection, schedule: Q04DX003 (ip), vehicle: saline with Tween-80 94 % of control | dose: 400.0 mg/kg/injection, schedule: Q04DX003 (ip), vehicle: saline with Tween-80 96 % of control

O=C1CC(=P(c2ccccc2)(c2ccccc2)c2ccccc2)C(=O)O1
inactive: [2] 103 % of control | [3] 103 % of control | [5] 93 % of control | dose: 200.0 mg/kg/injection, schedule: Q01DX009 (ip), vehicle: saline with Tween-80 100 % of control | [7] 95 % of control | [9] 93 % of control

N#CCc1ccc(Cl)c(Cl)c1
inactive: dose: 5.0 mg/kg/injection, schedule: Q01DX001 (ip), vehicle: saline 100 % of control | dose: 10.0 mg/kg/injection, schedule: Q01DX001 (ip), vehicle: saline 105 % of control | dose: 20.0 mg/kg/injection, schedule: Q01DX001 (ip), vehicle: saline 95 % of control | dose: 40.0 mg/kg/injection, schedule: Q01DX001 (ip), vehicle: saline 95 % of control | dose: 80.0 mg/kg/injection, schedule: Q01DX001 (ip), vehicle: saline 98 % of control

CC1c2cccc(Cl)c2C(=O)c2c(Cl)cccc21
inactive: [4] 102 % of control | [5] 108 % of control | [6] 102 % of control | [7] 102 % of control | [8] 110 % of control | [9] 96 % of control

c1ccc(SSc2ccccc2)cc1
inactive: dose: 25.0 mg/kg/injection, schedule: Q01DX009 (ip), vehicle: saline with Tween-80 89 % of control | dose: 25.0 mg/kg/injection, schedule: Q04DX003 (ip), vehicle: saline with Tween-80 95 % of control | [2] 86 % of control | dose: 50.0 mg/kg/injection, schedule: Q04DX003 (ip), vehicle: saline with Tween-80 103 % of control | [10] 97 % of control

CC(C)(C(=O)O)c1ccccc1
inactive: dose: 100.0 mg/kg/injection, schedule: Q01DX001 (ip), vehicle: saline with Tween-80 96 % of control | dose: 200.0 mg/kg/injection, schedule: Q01DX001 (ip), vehicle: saline with Tween-80 96 % of control | dose: 400.0 mg/kg/injection, schedule: Q01DX001 (ip), vehicle: saline with Tween-80 96 % of control

COC1OC(CO)C(O)C(OS(C)(=O)=O)C1OS(C)(=O)=O (stereo unspecified)
inactive: dose: 100.0 mg/kg/injection, schedule: Q04DX002 (ip), vehicle: saline 104 % of control | dose: 200.0 mg/kg/injection, schedule: Q04DX002 (ip), vehicle: saline 104 % of control | dose: 400.0 mg/kg/injection, schedule: Q04DX002 (ip), vehicle: saline 93 % of control
